What was measured:
Assay type in all cases: biochemical
[1] = target: CDK2 complexed with cyclin A (Homo sapiens, UniProt P24941); test: Cyclin dependent kinase activity assay, phosphorylation of synthetic peptide PKTPKKAKKLRRR; settings: 0.1 mM ATP, read-out: CDK 2 Activity*
Procedure, shortened: (§1)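 Radiometric filter-binding assay: 0.1 mM ATP plus ³³P-γ-ATP, 0.1 mM peptide, 1 mM DTT, 10 mM MgCl2 in 100 mM HEPES pH 7.4, with enzyme complex at 0.3–0.4 U/mL. Incubated 2 h at 30 °C; peptide captured on P81 phosphocellulose, washed with 0.5% phosphoric acid and counted by scintillation.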

CDK5 complexed with p25 = CDK5 complexed with p25 (Homo sapiens, UniProt Q00535); test: as above; settings: CDK5 complexed with p25, 0.1 mM ATP; read-out: CDK 5 Activity*
Procedure, shortened: as §1

KDR = KDR (Homo sapiens, UniProt P35968); test: Enzyme assay for  (KDR), IC50 determination; settings: 50 nM KDR, 500 μM ATP
Description: Enzyme assays for IC50 determinations were performed in 96-well titer plates, in a total reaction volume of 50 μL. Each reaction contained 1.5 μL of appropriate dilutions of inhibitor, 50 mM Hepes, pH 7.4, 1 mM DTT, 10 mM magnesium chloride, 2 mM phospho-poly(E4Y) (Sigma Chemical Company), 500 μM unlabeled ATP, 0.0025 μM [^33P]ATP (Amersham Pharmacia Biotech), and 50 nM KDR. All components except KDR were added to the wells, and the reaction was started by the addition of the enzyme. The reactions were mixed and incubated at room temperature for 1 hr, after which the reactions were quenched by the addition of 50 μL of 8% phosphoric acid. At this point, 90 μL aliquots of the samples were applied to positively charged DEAE 96-well filter plates (Millipore Corporation MADENOB10). The plates were incubated for 30 min at room temperature. The samples were aspirated and the wells were washed 3 times with 200 μL of 0.5% phosphoric acid. To each well, 50 μL of scintillation cocktail was added and counted for 60 sec in a TopCount microplate scintillation counter (Packard Instrument Company). The concentration of a compound that inhibited the activity of KDR by 50% (IC50) was determined based its inhibition curve.

Chain of KDR (P35968 20-1356): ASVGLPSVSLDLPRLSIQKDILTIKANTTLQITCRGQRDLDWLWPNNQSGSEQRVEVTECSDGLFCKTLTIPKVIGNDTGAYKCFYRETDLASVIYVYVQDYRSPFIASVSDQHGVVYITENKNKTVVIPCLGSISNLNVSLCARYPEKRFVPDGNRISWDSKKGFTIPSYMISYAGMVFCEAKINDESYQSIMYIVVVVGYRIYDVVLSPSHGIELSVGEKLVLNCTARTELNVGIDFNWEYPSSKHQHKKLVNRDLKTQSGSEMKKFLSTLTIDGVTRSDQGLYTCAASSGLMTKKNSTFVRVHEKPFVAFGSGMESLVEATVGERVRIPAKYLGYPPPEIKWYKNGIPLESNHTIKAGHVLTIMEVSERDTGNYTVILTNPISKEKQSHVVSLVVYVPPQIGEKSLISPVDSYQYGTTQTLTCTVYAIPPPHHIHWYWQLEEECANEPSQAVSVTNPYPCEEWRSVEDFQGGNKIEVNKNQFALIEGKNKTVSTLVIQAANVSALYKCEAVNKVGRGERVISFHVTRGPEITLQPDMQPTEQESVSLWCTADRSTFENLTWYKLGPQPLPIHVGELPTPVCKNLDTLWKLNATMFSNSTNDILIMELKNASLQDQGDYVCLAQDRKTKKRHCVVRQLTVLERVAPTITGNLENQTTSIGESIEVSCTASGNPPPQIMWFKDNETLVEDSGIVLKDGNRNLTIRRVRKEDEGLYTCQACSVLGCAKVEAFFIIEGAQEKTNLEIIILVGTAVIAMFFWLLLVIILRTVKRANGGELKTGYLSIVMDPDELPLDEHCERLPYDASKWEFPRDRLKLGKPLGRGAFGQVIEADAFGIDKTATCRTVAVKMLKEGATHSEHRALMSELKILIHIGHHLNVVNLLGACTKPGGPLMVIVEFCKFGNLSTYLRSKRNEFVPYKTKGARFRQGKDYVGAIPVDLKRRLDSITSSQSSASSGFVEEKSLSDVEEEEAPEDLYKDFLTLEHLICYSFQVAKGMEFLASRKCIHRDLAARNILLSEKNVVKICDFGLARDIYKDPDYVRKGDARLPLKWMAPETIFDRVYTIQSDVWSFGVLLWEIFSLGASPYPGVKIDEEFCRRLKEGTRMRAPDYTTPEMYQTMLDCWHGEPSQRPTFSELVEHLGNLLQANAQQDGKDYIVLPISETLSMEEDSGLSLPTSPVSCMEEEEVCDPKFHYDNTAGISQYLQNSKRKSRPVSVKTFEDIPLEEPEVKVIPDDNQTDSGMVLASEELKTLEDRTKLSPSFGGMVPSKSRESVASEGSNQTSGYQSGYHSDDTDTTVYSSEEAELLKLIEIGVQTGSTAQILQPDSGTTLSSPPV
Chain of CDK5 complexed with p25 (Q00535 whole entry): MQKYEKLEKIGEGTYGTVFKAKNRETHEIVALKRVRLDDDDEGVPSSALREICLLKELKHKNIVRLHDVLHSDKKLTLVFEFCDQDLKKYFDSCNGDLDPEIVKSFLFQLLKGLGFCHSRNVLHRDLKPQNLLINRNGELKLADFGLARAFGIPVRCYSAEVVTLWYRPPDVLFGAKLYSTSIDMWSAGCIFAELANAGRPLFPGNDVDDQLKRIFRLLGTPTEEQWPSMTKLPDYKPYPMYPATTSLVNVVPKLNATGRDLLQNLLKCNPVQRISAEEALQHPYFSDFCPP
Chain of CDK5 complexed with p25 (Q15078 99-307 partner limits assumed): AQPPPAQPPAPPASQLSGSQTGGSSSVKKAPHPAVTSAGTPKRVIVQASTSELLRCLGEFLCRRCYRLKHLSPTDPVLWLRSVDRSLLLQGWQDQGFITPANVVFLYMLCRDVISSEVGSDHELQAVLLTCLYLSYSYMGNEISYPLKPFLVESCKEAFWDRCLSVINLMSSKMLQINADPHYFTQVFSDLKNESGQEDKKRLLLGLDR

SMILES	IC50 [1]	IC50 (CDK5 complexed with p25)	IC50 (KDR)
NC(=S)N/N=C/c1cc(-c2ccc(O)c(F)c2)ccc1O [Example 23, 5-(3-Fluoro-4-hydroxyphenyl)salicylaldehyde thiosemicarbazone]	< 500 nM	< 500 nM	1000 to 20000 nM
NC(=S)N/N=C/c1cc(-c2ccc3[nH]ccc3c2)ccc1O [Example 36, 5-(5-Indolyl)salicylaldehyde thiosemicarbazone]	< 500 nM	< 500 nM	20000 to 50000 nM
Nc1nccc(-c2cc(-c3ccc4[nH]ccc4c3)ccc2O)n1 [Example 60, 2-(2-Amino-pyrimidin-4-yl)-4-(1H-indol-5-yl)-phenol]	2000 to 5000 nM	< 500 nM	< 1000 nM
Nc1nc(N[C@H](CO)Cc2ccccc2)cc(-c2cc(-c3ccc(O)cc3)ccc2O)n1 [Example 87, 3-[2-Amino-6-(1S-benzyl-2-hydroxy-ethylamino)-pyrimidin-4-yl]-biphenyl-4,4′-diol]	< 500 nM	< 500 nM	1000 to 20000 nM
NC(=S)N/N=C/c1cc(-c2ccc(O)c(O)c2)ccc1O [Example 25, 5-(3,4-Dihydroxyphenyl)salicylaldehyde thiosemicarbazone]	< 500 nM	< 500 nM	< 1000 nM
Nc1nc(-c2ccc(CO)cc2)cc(-c2cc(-c3ccc(O)cc3)ccc2O)n1 [Example 85, 3-[2-Amino-6-(4-hydroxymethyl-phenyl)-pyrimidin-4-yl]-biphenyl-4,4′-diol]	< 500 nM	< 500 nM	< 1000 nM
Nc1cccc(-c2cc(-c3cc(-c4ccc(O)cc4)ccc3O)nc(N)n2)c1 [Example 91, 3-[2-Amino-6-(3-amino-phenyl)-pyrimidin-4-yl]-biphenyl-4,4′-diol]	< 500 nM	< 500 nM	< 1000 nM
Nc1nc(-c2cc(-c3ccc(O)cc3)ccc2O)cc(N2CCOCC2)n1 [Example 81, 3-(2-Amino-6-morpholin-4-yl-pyrimidin-4-yl)-biphenyl-4,4′-diol]	< 500 nM	< 500 nM	1000 to 20000 nM
Nc1nc(-c2ccc([N+](=O)[O-])cc2)cc(-c2cc(-c3ccc(O)cc3)ccc2O)n1 [Example 89, 3-[2-Amino-6-(4-nitro-phenyl)-pyrimidin-4-yl]-biphenyl-4,4′-diol]	< 500 nM	< 500 nM	1000 to 20000 nM
Nc1nccc(-c2cc(-c3ccc(C=O)o3)ccc2O)n1 [Example 59, 5-[3-(2-Amino-pyrimidin-4-yl)-4-hydroxy-phenyl]-furan-2-carbaldehyde]	500 to 2000 nM	500 to 2000 nM	< 1000 nM
Nc1nc(-c2cc(-c3ccc(O)cc3)ccc2O)cs1 [Example 61, 3-(2-Amino-thiazol-4-yl)-biphenyl-4,4′-diol]	< 500 nM	< 500 nM	1000 to 20000 nM
Nc1nc(-c2cc(-c3ccc(O)cc3)ccc2O)cc(-c2ccccc2CO)n1 [Example 83, 3-[2-Amino-6-(2-hydroxymethyl-phenyl)-pyrimidin-4-yl-biphenyl-4,4]-diol]	< 500 nM	< 500 nM	< 1000 nM
Nc1nccc(-c2cc(-c3ccc(O)cc3)ccc2O)n1 [Example 57, 3-(2-Amino-pyrimidin-4-yl)-biphenyl-4,4′-diol]	< 500 nM	< 500 nM	< 1000 nM
